Results published in PMC11054271, “ABCG2 Transports the Flukicide Nitroxynil and Affects Its Biodistribution and Secretion into Milk” (Pharmaceutics, 2024).

Columns and labels:
murine Abcg2 [1] = target: T1, murine Abcg2 (Mus musculus, UniProt Q7TMS5); assay: Plasma pharmacokinetics in wild-type and Abcg2−/− male mice; assay type: in vivo; set-up: from tissue; host or cells: whole animal: wild-type vs Abcg2-/- mice, >99% FVB/N background; conditions: 10 mg/kg s.c.
T1 sequence (Q7TMS5 1-657): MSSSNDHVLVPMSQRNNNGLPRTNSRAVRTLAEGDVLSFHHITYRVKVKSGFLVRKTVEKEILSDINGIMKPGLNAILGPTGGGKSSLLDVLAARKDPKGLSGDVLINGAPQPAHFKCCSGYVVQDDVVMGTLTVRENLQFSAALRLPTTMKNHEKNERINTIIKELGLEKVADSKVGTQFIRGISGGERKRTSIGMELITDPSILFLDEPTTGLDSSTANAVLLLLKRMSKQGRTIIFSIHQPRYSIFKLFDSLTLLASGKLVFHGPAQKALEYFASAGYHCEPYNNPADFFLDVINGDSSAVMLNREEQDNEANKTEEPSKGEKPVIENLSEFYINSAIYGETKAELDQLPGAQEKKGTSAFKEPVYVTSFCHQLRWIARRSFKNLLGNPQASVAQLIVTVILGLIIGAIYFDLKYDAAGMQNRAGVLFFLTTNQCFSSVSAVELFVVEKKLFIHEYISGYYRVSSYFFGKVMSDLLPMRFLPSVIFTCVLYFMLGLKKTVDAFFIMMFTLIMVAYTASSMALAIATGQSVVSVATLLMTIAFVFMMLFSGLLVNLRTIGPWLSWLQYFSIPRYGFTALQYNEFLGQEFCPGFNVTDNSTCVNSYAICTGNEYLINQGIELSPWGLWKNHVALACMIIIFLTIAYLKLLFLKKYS
Procedure: (§1) All in vivo experiments were carried out using wild-type and Abcg2^−/− mice aged between 8 and 17 weeks, all of >99% FVB/N genetic background, generated and gently supplied by A. H. Schinkel (Netherlands Cancer Institute). Mice were housed and handled complying with institutional and ARRIVE guidelines and European legislation (EU Directive 2010/63/EU for animal experiments). Additionally, experimental procedures were approved by the Animal Care and Use Committee of the University of León and the Junta de Castilla y León (ULE_011_2019).
For pharmacokinetic experiments, a single dose of nitroxynil at 10 mg/kg was administered subcutaneously to wild-type and Abcg2^−/− male mice (n = 4–5, for each time point). Distomicide® (250 mg/mL) commercial solution was dissolved in saline (sodium chloride 0.9%) and dosed at 200 μL per 30 g body weight. Blood samples were collected at different time points (0.5, 3, 4.5, 6, 24, 48 and 96 h) and heparinized blood samples were centrifugated for 15 min at 3000× g. […]
(§2) Plasma, milk and tissue samples from each animal were individually processed and analyzed without pooling, while samples from transport assays were not processed. […]
(§3) Waters 2695 separation module and Waters 2998 UV photodiode array detector set at 270 nm were used for samples analysis. […] Limit of detection (LOD) and quantification (LOQ) were calculated as previously described. […]

murine Abcg2 [2] = target: T1, murine Abcg2; assay: Milk secretion experiment in lactating wild-type and Abcg2−/− female mice; assay type: in vivo; set-up: from tissue; host or cells: whole animal: wild-type vs Abcg2-/- mice, >99% FVB/N background; conditions: lactating female mice, 30 min after 10 mg/kg i.v.
Procedure: as §1
Pups of approximately 10 days old were separated from their mothers (wild-type (n = 10) and Abcg2^−/− (n = 11) female mice) 3 h before beginning the experiment. Milk secretion experiments were performed as previously described. Nitroxynil solution was prepared by diluting Distomicide® (250 mg/mL) commercial solution in saline and administered at a dose of 150 μL/30 g bw into the tail vein under anesthesia with isoflurane. […]
as §2, §3

AUC (murine Abcg2 [1]; FVB/N, mouse, plasma, sc, wild-type male mice, 0.5-96 h): 1920 ± 49.1 µg·h/mL
Plasma AUC, fold higher in Abcg2−/− compared with wild-type (murine Abcg2 [1]; male mice): 1.8 fold
Milk concentration, fold higher in wild-type compared with Abcg2−/− (murine Abcg2 [2]): 1.9 fold
Milk-to-plasma ratio, fold higher in wild-type compared with Abcg2−/− (murine Abcg2 [2]): 2.1 fold
SMILES: N#Cc1cc(I)c(O)c([N+](=O)[O-])c1 [nitroxynil]
